Target: T1, YAP in LX-2 cells (Homo sapiens, UniProt P46937)
T1 construct: gene YAP1; endogenous full-length protein in LX-2 cells, detected by western blot (YAP antibody Cell Signaling 14074 T)
Test: CETSA, western blot
Assay type: cell-based
Conditions: LX-2 cells incubated 24 h with 10 μmol/L CS-IVa, lysed, supernatant heated 45-75 °C for 3 min

T1 sequence (P46937 whole entry): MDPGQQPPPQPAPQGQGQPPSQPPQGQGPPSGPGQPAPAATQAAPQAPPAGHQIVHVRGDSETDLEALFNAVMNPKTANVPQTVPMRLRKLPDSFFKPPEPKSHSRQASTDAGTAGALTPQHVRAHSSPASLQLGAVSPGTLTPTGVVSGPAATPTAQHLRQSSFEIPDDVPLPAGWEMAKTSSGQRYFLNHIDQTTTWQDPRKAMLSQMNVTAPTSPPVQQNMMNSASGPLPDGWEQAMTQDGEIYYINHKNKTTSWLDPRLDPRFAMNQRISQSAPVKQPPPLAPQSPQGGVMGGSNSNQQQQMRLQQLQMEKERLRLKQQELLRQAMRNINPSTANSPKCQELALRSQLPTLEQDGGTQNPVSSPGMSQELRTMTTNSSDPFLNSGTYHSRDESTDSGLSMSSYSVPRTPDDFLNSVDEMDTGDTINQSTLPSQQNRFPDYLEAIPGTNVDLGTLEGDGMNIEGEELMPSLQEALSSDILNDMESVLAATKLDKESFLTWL

## CC1(C)CC[C@]2(C(=O)O[C@@H]3O[C@H](CO)[C@@H](O)[C@H](O)[C@H]3O)CC[C@]3(C)C(=CC[C@@H]4[C@@]5(C)CC[C@H](O[C@@H]6O[C@H](C(=O)O)[C@@H](O)[C@H](O)[C@H]6O)C(C)(C)[C@@H]5CC[C@]43C)[C@@H]2C1 [CS-IVa]
  thermal stability (CETSA): treatment with CS-IVa significantly increased the thermal stability of YAP

From PMC11912722, “Chikusetsusaponin IVa targeted YAP as an inhibitor to attenuate liver fibrosis and hepatic stellate cell activation” (Chinese Medicine, 2025)
